# Test results published in the supplement of paper PMC10307832.
# Assays:
# Assay in all cases: relative viability (nuclei count vs DMSO), 5 days (fraction); higher = more cells survive
# [1] = compound: COc1cc2nc(N3CCCN(C)CC3)nc(NC3CCN(Cc4ccccc4)CC3)c2cc1OC + C[C@]1(O)C[C@@H](c2nc(-c3ccc4ccc(-c5ccccc5)nc4c3)c3c(N)nccn32)C1 [Linsitinib] (partner 1 µM)
# Method in brief: (§1)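 Each reported value is a median over duplicate plates. It expresses relative viability: treated-well nuclei count divided by vehicle-well nuclei count. Lung cancer cell lines in 1536-well plates were dosed by pin tool a day after seeding, alone with one drug or with a fixed anchor-drug dose plus five library-drug doses (not always all listed) in √10 steps, and nuclei were counted after 5 days.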
# [2] = compound: Cc1cc([C@@H](C)Nc2ccccc2C(=O)O)c2nc(N3CCOCC3)cc(=O)n2c1 [AZD6482] + C[C@@H](Oc1cc(-c2cnn(C3CCNCC3)c2)cnc1N)c1c(Cl)ccc(F)c1Cl [Crizotinib] (partner 1 µM)
# Method in brief: as §1
# [3] = compound: Cc1cc([C@@H](C)Nc2ccccc2C(=O)O)c2nc(N3CCOCC3)cc(=O)n2c1 [AZD6482] + Nc1nc2[nH]cc(CCc3ccc(C(=O)N[C@@H](CCC(=O)O)C(=O)O)cc3)c2c(=O)[nH]1 [Pemetrexed] (partner 0.2 µM)
# Method in brief: as §1
# [4] = compound: Cc1cc([C@@H](C)Nc2ccccc2C(=O)O)c2nc(N3CCOCC3)cc(=O)n2c1 [AZD6482] + O=C(c1cc(Cc2n[nH]c(=O)c3ccccc23)ccc1F)N1CCN(C(=O)C2CC2)CC1 [Olaparib] (partner 8 µM)
# Method in brief: as §1
cell line,measurement,setting,value
NCI-H2126,relative viability,[1]; first compound 0.2 µM,0.69
same,relative viability,[1]; first compound 0.6325 µM,0.707
same,relative viability,[1]; first compound 2 µM,0.724
same,relative viability,[1]; first compound 6.325 µM,0.708
same,relative viability,[2]; first compound 0.08 µM,0.954
same,relative viability,[2]; first compound 0.253 µM,0.987
same,relative viability,[2]; first compound 0.8 µM,1.01
same,relative viability,[2]; first compound 2.53 µM,0.787
same,relative viability,[2]; first compound 8 µM,0.777
same,relative viability,[3]; first compound 0.08 µM,0.683
same,relative viability,[3]; first compound 0.253 µM,0.677
same,relative viability,[3]; first compound 0.8 µM,0.692
same,relative viability,[3]; first compound 2.53 µM,0.411
same,relative viability,[3]; first compound 8 µM,0.434
same,relative viability,[4]; first compound 0.08 µM,0.877
same,relative viability,[4]; first compound 0.253 µM,0.904
same,relative viability,[4]; first compound 0.8 µM,0.867
same,relative viability,[4]; first compound 2.53 µM,0.615
same,relative viability,[4]; first compound 8 µM,0.57
EMC-BAC-2,relative viability,[1]; first compound 0.2 µM,0.799
same,relative viability,[1]; first compound 0.6325 µM,0.815
same,relative viability,[1]; first compound 2 µM,0.903
same,relative viability,[1]; first compound 6.325 µM,0.787
same,relative viability,[2]; first compound 0.08 µM,0.66
same,relative viability,[2]; first compound 0.253 µM,0.717
same,relative viability,[2]; first compound 0.8 µM,0.858
same,relative viability,[2]; first compound 2.53 µM,0.617
same,relative viability,[2]; first compound 8 µM,0.653
same,relative viability,[3]; first compound 0.08 µM,0.415
same,relative viability,[3]; first compound 0.253 µM,0.45
same,relative viability,[3]; first compound 0.8 µM,0.438
same,relative viability,[3]; first compound 2.53 µM,0.414
same,relative viability,[3]; first compound 8 µM,0.413
same,relative viability,[4]; first compound 0.08 µM,0.455
same,relative viability,[4]; first compound 0.253 µM,0.479
same,relative viability,[4]; first compound 0.8 µM,0.523
same,relative viability,[4]; first compound 2.53 µM,0.471
same,relative viability,[4]; first compound 8 µM,0.44
NCI-H1993,relative viability,[1]; first compound 0.2 µM,0.728
same,relative viability,[1]; first compound 0.6325 µM,0.723
same,relative viability,[1]; first compound 2 µM,0.676
same,relative viability,[1]; first compound 6.325 µM,0.765
same,relative viability,[2]; first compound 0.08 µM,0.671
same,relative viability,[2]; first compound 0.253 µM,0.74
same,relative viability,[2]; first compound 8 µM,0.764
same,relative viability,[3]; first compound 0.08 µM,0.464
same,relative viability,[3]; first compound 0.253 µM,0.58
same,relative viability,[3]; first compound 0.8 µM,0.48
same,relative viability,[3]; first compound 2.53 µM,0.4
same,relative viability,[3]; first compound 8 µM,1.03
same,relative viability,[4]; first compound 0.08 µM,0.881
same,relative viability,[4]; first compound 0.253 µM,0.997
same,relative viability,[4]; first compound 0.8 µM,0.95
same,relative viability,[4]; first compound 2.53 µM,0.563
same,relative viability,[4]; first compound 8 µM,0.665
NCI-H520,relative viability,[1]; first compound 0.2 µM,1.13
same,relative viability,[1]; first compound 0.6325 µM,0.931
same,relative viability,[1]; first compound 2 µM,1.1
same,relative viability,[1]; first compound 6.325 µM,0.747
same,relative viability,[2]; first compound 0.08 µM,0.623
same,relative viability,[2]; first compound 0.253 µM,0.615
same,relative viability,[2]; first compound 0.8 µM,0.523
same,relative viability,[2]; first compound 8 µM,0.4
same,relative viability,[3]; first compound 0.08 µM,0.501
same,relative viability,[3]; first compound 0.253 µM,0.409
same,relative viability,[3]; first compound 0.8 µM,0.394
same,relative viability,[3]; first compound 2.53 µM,0.144
same,relative viability,[3]; first compound 8 µM,0.222
same,relative viability,[4]; first compound 0.08 µM,0.295
same,relative viability,[4]; first compound 0.253 µM,0.266
same,relative viability,[4]; first compound 0.8 µM,0.262
same,relative viability,[4]; first compound 2.53 µM,0.162
same,relative viability,[4]; first compound 8 µM,0.185
